Source: PubChem BioAssay (NCI)
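How tested: cells in 96-well plates exposed to compound for 48 hours at five concentrations. TGI denotes the concentration required for complete inhibition of growth.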

Experiments:
Experiment in all cases: growth of human tumour cells (NCI), 48 h
[1] = test system: ACHN renal
[2] = test system: HCT-116 colon
[3] = test system: KM12 colon
[4] = test system: LOX IMVI melanoma
[5] = test system: NCI-H226 lung
[6] = test system: NCI-H522 lung
[7] = test system: OVCAR-3 ovarian
[8] = test system: OVCAR-5 ovarian
[9] = test system: OVCAR-8 ovarian
[10] = test system: SK-MEL-28 melanoma
[11] = test system: SR leukemia
[12] = test system: UACC-257 melanoma
[13] = test system: UACC-62 melanoma
[14] = test system: DU-145 prostate
[15] = test system: HS 578T breast
[16] = test system: PC-3 prostate

`NC(CCC(=O)NC(CSC(=O)N(O)c1ccccc1)C(=O)NCC(=O)O)C(=O)O` (stereo unspecified) showed a TGI [1] of over 1000 µM, a TGI [2] of over 1000 µM and a TGI [3] of over 1000 µM. The TGI [4] was over 1000 µM, the TGI [5] was over 1000 µM and the TGI [6] was over 1000 µM. The TGI [7] was over 1000 µM, the TGI [8] was over 1000 µM and the TGI [9] was over 1000 µM. It also gave a TGI [10] of over 1000 µM, a TGI [11] of over 1000 µM and a TGI [12] of over 1000 µM. It also gave a TGI [13] of over 1000 µM.
`CN1C(=O)C(c2c[nH]c3ccccc23)N(C)C(=O)C1c1c[nH]c2ccccc12` (stereo unspecified) was tested, and the TGI [1] was over 100 µM, the TGI [14] was over 100 µM and the TGI [2] was over 100 µM. For the same molecule, the TGI [15] was over 100 µM, the TGI [3] was over 100 µM and the TGI [4] was over 100 µM. It also gave a TGI [6] of over 100 µM, a TGI [7] of over 100 µM and a TGI [8] of over 100 µM. It also gave a TGI [9] of over 100 µM, a TGI [16] of over 100 µM and a TGI [10] of over 100 µM. For the same molecule, the TGI [12] was over 100 µM and the TGI [13] was over 100 µM.
Work on `O=C(O)CCc1cccc2c1oc1c(CCC(=O)O)cccc12` yielded a TGI [1] of over 100 µM, a TGI [2] of over 100 µM and a TGI [3] of over 100 µM. It also gave a TGI [4] of over 100 µM, a TGI [5] of over 100 µM and a TGI [6] of over 100 µM. For the same molecule, the TGI [7] was over 100 µM, the TGI [8] was over 100 µM and the TGI [9] was over 100 µM. It also gave a TGI [10] of over 100 µM, a TGI [11] of over 100 µM and a TGI [12] of over 100 µM. The TGI [13] was over 100 µM.
Molecule `Cc1ccc(C)n1-c1ccccc1C1C=CN(C(=O)OC(C)(C)C)C=C1` has a TGI [1] of over 100 µM, a TGI [14] of over 100 µM and a TGI [2] of 45.1 µM. It also gave a TGI [15] of over 100 µM, a TGI [3] of 31.2 µM and a TGI [4] of 37.4 µM. It also gave a TGI [5] of 31.5 µM, a TGI [6] of 36.2 µM and a TGI [7] of 46.8 µM. It also gave a TGI [8] of over 100 µM, a TGI [9] of over 100 µM and a TGI [16] of over 100 µM. For the same molecule, the TGI [10] was over 100 µM, the TGI [12] was over 100 µM and the TGI [13] was 77.9 µM.
`NC(=O)C1Cc2cc3c(cc21)OCO3` (stereo unspecified) showed a TGI [1] of over 100 µM, a TGI [14] of over 100 µM and a TGI [2] of over 100 µM. It also gave a TGI [15] of over 100 µM, a TGI [3] of over 100 µM and a TGI [4] of over 100 µM. For the same molecule, the TGI [5] was over 100 µM, the TGI [6] was over 100 µM and the TGI [7] was over 100 µM. For the same molecule, the TGI [8] was over 100 µM, the TGI [9] was over 100 µM and the TGI [16] was over 100 µM. The TGI [12] was over 100 µM and the TGI [13] was over 100 µM.
`CC1OC(OC2C(OC(=O)[C@@H]3CC(C)(C)C[C@@H]4C5=CC[C@@H]6[C@@]7(C)C[C@H](O)[C@H](OC8OC(CO)C(O)C(O)C8O)[C@@](C)(CO)C7[C@H](O)C[C@@]6(C)[C@]5(C)C[C@@H](O)[C@H]43)OCC(O)C2O)C(O)C(O)C1O` (stereo partly specified) was tested, and the TGI [1] was over 15 µM, the TGI [14] was over 15 µM and the TGI [2] was over 15 µM. For the same molecule, the TGI [15] was over 15 µM, the TGI [3] was over 15 µM and the TGI [4] was over 15 µM. It also gave a TGI [5] of over 15 µM, a TGI [6] of over 15 µM and a TGI [7] of over 15 µM. For the same molecule, the TGI [8] was over 15 µM, the TGI [9] was over 15 µM and the TGI [16] was over 15 µM. It also gave a TGI [12] of over 15 µM and a TGI [13] of over 15 µM.
Molecule `COc1c(Br)cc(/C=C(\C#N)c2cccnc2)cc1Br` has a TGI [1] of over 100 µM, a TGI [14] of over 100 µM and a TGI [2] of over 100 µM. It also gave a TGI [3] of over 100 µM, a TGI [5] of over 100 µM and a TGI [6] of over 100 µM. The TGI [7] was over 100 µM, the TGI [8] was over 100 µM and the TGI [9] was over 100 µM. The TGI [16] was over 100 µM, the TGI [10] was over 100 µM and the TGI [11] was over 100 µM. The TGI [12] was over 100 µM and the TGI [13] was over 100 µM.
`CN(N)/N=N/c1nc[nH]c1[N+](=O)[O-]` showed a TGI [1] of over 100 µM, a TGI [14] of over 100 µM and a TGI [2] of over 100 µM. For the same molecule, the TGI [15] was over 100 µM, the TGI [3] was over 100 µM and the TGI [4] was over 100 µM. It also gave a TGI [5] of over 100 µM, a TGI [6] of over 100 µM and a TGI [7] of over 100 µM. It also gave a TGI [8] of over 100 µM, a TGI [9] of over 100 µM and a TGI [16] of over 100 µM. For the same molecule, the TGI [10] was over 100 µM, the TGI [12] was over 100 µM and the TGI [13] was over 100 µM.
For `COCn1cnc2c(=O)n(-c3ccc(OC)cc3)c(=S)n(-c3ccc(OC)cc3)c21`, the TGI [1] was over 100 µM, the TGI [14] was over 100 µM and the TGI [2] was over 100 µM. It also gave a TGI [3] of over 100 µM, a TGI [4] of over 100 µM and a TGI [5] of over 100 µM. It also gave a TGI [6] of over 100 µM, a TGI [7] of over 100 µM and a TGI [8] of over 100 µM. For the same molecule, the TGI [9] was over 100 µM, the TGI [16] was over 100 µM and the TGI [10] was over 100 µM. It also gave a TGI [11] of over 100 µM, a TGI [12] of over 100 µM and a TGI [13] of over 100 µM.
For `N#CCCN(c1ccc(C=Nc2ccccc2Cl)cc1)S(=O)(=O)c1ccccc1`, the TGI [1] was over 100 µM, the TGI [2] was over 100 µM and the TGI [3] was over 100 µM. For the same molecule, the TGI [4] was over 100 µM, the TGI [5] was over 100 µM and the TGI [6] was over 100 µM. The TGI [7] was over 100 µM, the TGI [8] was over 100 µM and the TGI [9] was over 100 µM. The TGI [10] was over 100 µM, the TGI [11] was over 100 µM and the TGI [12] was over 100 µM. It also gave a TGI [13] of over 100 µM.
With `C/C(=N\NC(=O)c1ccncc1)c1ccccc1F` the TGI [1] was over 10 µM, the TGI [2] was over 10 µM and the TGI [3] was over 10 µM. The TGI [4] was over 10 µM, the TGI [5] was over 10 µM and the TGI [7] was over 10 µM. For the same molecule, the TGI [8] was over 10 µM, the TGI [9] was over 10 µM and the TGI [16] was over 10 µM. The TGI [10] was over 10 µM and the TGI [11] was over 10 µM.
Molecule `Cc1ccc(/C=C2\CN(C)CC3C2=NN(c2ccccc2)C3c2ccc(C)cc2)cc1` (stereo unspecified) has a TGI [1] of over 100 µM, a TGI [14] of over 100 µM and a TGI [2] of over 100 µM. It also gave a TGI [15] of over 100 µM, a TGI [3] of over 100 µM and a TGI [4] of over 100 µM. The TGI [5] was over 100 µM, the TGI [6] was over 100 µM and the TGI [7] was over 100 µM. It also gave a TGI [9] of over 100 µM, a TGI [16] of over 100 µM and a TGI [10] of over 100 µM. It also gave a TGI [12] of over 100 µM and a TGI [13] of over 100 µM.
`CCN(CC)c1c(-c2c(N(CC)CC)c(OC(C)=O)c3sccn3c2=O)c(=O)n2ccsc2c1OC(C)=O` was tested, and the TGI [1] was over 100 µM, the TGI [14] was over 100 µM and the TGI [2] was over 100 µM. For the same molecule, the TGI [15] was over 100 µM, the TGI [3] was over 100 µM and the TGI [4] was over 100 µM. It also gave a TGI [5] of over 100 µM, a TGI [7] of over 100 µM and a TGI [8] of over 100 µM. The TGI [9] was over 100 µM, the TGI [16] was over 100 µM and the TGI [10] was over 100 µM. It also gave a TGI [12] of over 100 µM and a TGI [13] of over 100 µM.
Molecule `CC(=O)N1C(NN(C)C)CCN1c1ccccc1` (stereo unspecified) has a TGI [14] of over 10 µM, a TGI [3] of over 10 µM and a TGI [9] of over 10 µM. For the same molecule, the TGI [16] was over 10 µM, the TGI [10] was over 10 µM and the TGI [11] was over 10 µM. For the same molecule, the TGI [12] was over 10 µM and the TGI [13] was over 10 µM.
Work on `CC(C)=c1sc(=C(C)C)c2c1=NC(C)(C)N=2` yielded a TGI [1] of over 100 µM, a TGI [14] of over 100 µM and a TGI [2] of over 100 µM. The TGI [15] was over 100 µM, the TGI [3] was over 100 µM and the TGI [4] was over 100 µM. The TGI [6] was over 100 µM, the TGI [7] was over 100 µM and the TGI [8] was over 100 µM. The TGI [9] was over 100 µM, the TGI [16] was over 100 µM and the TGI [10] was over 100 µM. It also gave a TGI [12] of over 100 µM and a TGI [13] of over 100 µM.
`NC1CC(Cl)c2c(Cl)sc(Cl)c21` (stereo unspecified) gave a TGI [1] of over 100 µM, a TGI [14] of over 100 µM and a TGI [2] of over 100 µM. For the same molecule, the TGI [15] was over 100 µM, the TGI [3] was over 100 µM and the TGI [4] was over 100 µM. It also gave a TGI [5] of over 100 µM, a TGI [6] of 0.049 µM and a TGI [7] of over 100 µM. For the same molecule, the TGI [8] was over 100 µM, the TGI [9] was over 100 µM and the TGI [10] was over 100 µM. For the same molecule, the TGI [11] was over 100 µM, the TGI [12] was over 100 µM and the TGI [13] was over 100 µM.
